# Results: patent publication US7468370B2, “[1,7]naphthyridines as PDE4 inhibitors” (Novartis AG, priority 2002, dated 2008)
# Structures can show the parent of a compound that is named as a salt.
# What was measured:
# [1] = molecular target: T1, human PDE4D (Homo sapiens, UniProt Q08499); test: PDE4 Isoenzyme Inhibition Assay (Scintillation Proximity Assay, [3H]-cAMP); type: biochemical; conditions: recombinant 6His-tagged human PDE4D3 expressed in Sf21 cells; 1 μM cAMP; 1% DMSO; room temperature
# T1 construct: PDE4 cDNA constructs containing the coding regions of the three isoenzymes; made in house; host or cells: Sf21 (Spodoptera frugiperda) insect cells, baculovirus (Bac-To-Bac)
# T1 sequence (Q08499 1-673 isoform Q08499-2): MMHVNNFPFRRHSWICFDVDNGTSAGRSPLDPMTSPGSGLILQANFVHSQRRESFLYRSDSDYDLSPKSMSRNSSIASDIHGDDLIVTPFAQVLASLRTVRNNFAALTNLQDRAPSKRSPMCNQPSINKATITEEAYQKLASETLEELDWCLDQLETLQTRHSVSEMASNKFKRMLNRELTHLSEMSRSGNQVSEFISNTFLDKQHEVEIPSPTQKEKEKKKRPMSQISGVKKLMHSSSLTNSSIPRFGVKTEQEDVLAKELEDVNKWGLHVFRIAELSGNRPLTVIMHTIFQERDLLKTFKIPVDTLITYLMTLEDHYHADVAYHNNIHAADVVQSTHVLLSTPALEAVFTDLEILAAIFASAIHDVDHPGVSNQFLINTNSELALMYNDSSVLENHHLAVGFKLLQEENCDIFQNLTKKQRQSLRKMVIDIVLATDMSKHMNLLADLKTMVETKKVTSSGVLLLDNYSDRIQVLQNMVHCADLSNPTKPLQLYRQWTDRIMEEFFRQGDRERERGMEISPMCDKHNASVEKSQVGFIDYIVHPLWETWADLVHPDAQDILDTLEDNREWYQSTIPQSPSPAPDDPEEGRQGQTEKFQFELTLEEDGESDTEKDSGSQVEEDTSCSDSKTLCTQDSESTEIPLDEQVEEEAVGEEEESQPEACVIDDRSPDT
# Description: PDE4 Expression: Sf21 cells are grown to a density of 2×10^6 cells/ml and infected with human PDE4A, PDE4B or PDE4D3 containing baculovirus to a multiplicity of infection (m.o.i.) of 1 for 72 hours. The infected cells are harvested by centrifugation at 1,400 g for 4 minutes at 4° C. and the cell pellets are frozen at −80° C. Sf21 (Spodoptera frugiperda 21) insect cells are routinely maintained at densities between 3×105 and 3×10^6 cells/ml in SF00 Serum Free Medium (Invitorgen Life Technologies). Sf21 cells (1×109) are resuspended in 100 ml cold (4° C.) Lysis Buffer (50 mM Na2HP04, 200 mM NaCl, 10 mM Imidazole). Cells are incubated on ice for 30 minutes then centrifuged at 15,000 g for 20 minutes at 4° C.
# PDE4 Purification: The 6 Histidine-tagged PDE4 proteins are isolated from crude cell lysates by a batch-wise Ni-NTA purification strategy (QIAGEN). N-NTA resin is first pre-rinsed to remove ethanol preservative and equilibrated with Lysis Buffer. Cell lysate is added, (10 ml 50% Ni-NTA slurry resin per 50 ml lysate), and gently rotated on a mixer at 4° C. for 1-2 h. The sample is then centrifuged at 1,000 g for 5 minutes at 4° C. using Denley benchtop centrifuge. The supernatant is removed and the resin is washed 3 times with 50 ml ice cold Wash Buffer (50 mM Na2HP04, 300 mM NaCl and 20 mM imidazole) followed by centrifugation at 1,000 g for 5 minutes at 4° C. The 6His-tagged protein is eluted from the resin with 3×5 ml ice cold Elution Buffer (50 mM NaH2PO4, 300 mM NaCl, 250 mM imidazole) and collected by centrifugation at 1,000 g for 5 minutes at 4° C. The supernatants are then pooled before buffer exchange and concentration using a VivaScience 20 ml 5K 0.2 μM Concentrator. Samples are aliquoted and stored at −20° C.
# PDE4 Assay: The assay is based on Amersham Pharmacia Biotech Scintillation Proximity Assay (SPA) technology. Enzyme is diluted with enzyme dilution buffer (10 mM Tris-HCl, pH 7.5 containing 1 mM EDTA) in order to obtain between 10-30% total substrate hydrolysis during the assay. The enzymatic reaction is started by adding 10 μl diluted enzyme to 80 μl substrate (0.1 μCi [3H]-cAMP, 1 μM cAMP) and 10 μl inhibitor solution in a 96-well microtiter plate. After 30-60 minutes incubation at room temperature the reaction is stopped by adding 50 μl PDE SPA beads (20 mg/ml). After 30 minutes the plate is centrifuged (3000 g, 10 minutes) and counted (Packard TopCount).
# The concentration of DMSO is kept constant at 1% (v/v) throughout the assay. The concentration at which 50% inhibition occurs (IC50) is determined from inhibition—concentration curves in a conventional manner.
SMILES,melting point,IC50 [1]
"N#Cc1cccc(-c2nc(N3CCNCC3)cc3cccnc23)c1 (as salt: hydrochloride) [Example 4, 3-(6-Piperazin-1-yl-[1,7]naphthyridin-8-yl)-benzonitrile]",> 250 °C,
"N#Cc1cccc(-c2nc(N3CCC(O)C3)cc3cccnc23)c1 (centres unmarked) [Example 1, 3-[6-(3-Hydroxy-pyrrolidin-1-yl)-[1,7]naphthyridin-8-yl]-benzonitrile]",132 to 133 °C,1 nM
"N#Cc1cccc(-c2nc(N3CCC(C(=O)[O-])CC3)cc3cccnc23)c1.[Li+] [Example 3, 1-[8-(3-Cyano-phenyl)-[1,7]naphthyridin-6-yl]-piperidine-4-carboxylic acid, Lithium salt]",> 200 °C,3.1 nM
N#Cc1cccc(-c2nc(N3CCOCC3)cc3cccnc23)c1 [Example 12],,2.5 nM
CN1CCN(c2cc3cccnc3c(-c3cccc(C#N)c3)n2)CC1 [Example 15],,10.4 nM
O=C(O)C1CCN(c2cc3cccnc3c(-c3ccc(F)c(Cl)c3)n2)CC1 [Example 39],,8 nM
